Patent US20230137092A1, “Composition and Method for the Treatment and Prevention of Cardiac, Pulmonary, Dermal, and Renal Fibrosis” (EMERALD HEALTH PHARMACEUTICALS INC., priority 2020, published 2023)

What was measured:
[1] = test system: ERK1+2; test: Ang II-induced ERK1+2 phosphorylation in hICF, immunoblot; type: cell-based, human; settings: hICF preincubated with compound, Ang II for 30 minutes
Experimental: The effect of compound of Formula (VIII) on Ang II signaling pathways in hICF was investigated. ERK1+2 and NFAT activation are two pathways activated by Ang-II (Wakatsuki et al., 2004, Trends Biochem Sci, 29:609-617). hICF were preincubated with compound of Formula (VIII), treated with Ang II for 30 minutes, washed with PBS and proteins extracted in 50 μL of lysis buffer (50 mM Tris-HCl pH 7.5, 150 mM NaCl, 1% (v/v) NP-40, 10% (v/v) glycerol, 10 mM NaF, 1 mM Na3VO4, aprotinin (10 μg/ml), leupeptine (10 μg/ml), pepstatin (1 μg/ml) and 1 mM PMSF saturated). Separated proteins in 10% SDS/PAGE gels were transferred to PVDF membranes and blocked in TBS solution containing 0.1% Tween 20 and 5% bovine serum albumin (BSA) for 1 hour at room temperature. Immunodetection of specific proteins was carried out by incubation with primary antibodies against p-ERK (1:1000; #4695 Cell Signaling Technology) and ERK (1:1000, M5670, Sigma). Membranes were incubated with horseradish peroxidase-conjugated secondary antibody was added and proteins detected by chemiluminescence system (GE Healthcare Europe GmbH). Compound of Formula (VIII) inhibited Ang II-induced ERK1+2 phosphorylation (FIG. 16B).

[2] = test system: NFAT; test: Gal4-NFAT / Gal4-Luc reporter assay in hICF; type: cell-based, human; settings: hICF transfected with Gal4-Luc and Gal4-NFAT, stimulated 6 hours
Experimental: hICF cells were transiently transfected for 24 hours with the Gal4-Luc reporter plasmid (which includes five Gal4 DNA binding sites fused to the luciferase gene) and the Gal4-NFAT1-415plasmid for 24 hours using Roti-Fect (Carl Roth GmbH & Co. KG, Karlsruhe, Germany). Then cells were stimulated for 6 hours and luciferase activity in the cell lysates was measured. The specific transactivation expressed as a percentage of activation relative to control. Compound of Formula (VIII) inhibited Ang II-induced NFAT activation (FIG. 16B).

CCCCc1nc(Cl)c(CO)n1Cc1ccc(-c2ccccc2-c2nn[nH]n2)cc1 [Losartan, reference compound]
Ang II-induced ERK1+2 phosphorylation [1]: inhibited | Ang II-induced NFAT activation (luciferase) [2]: inhibited
